In patent publication US8435984B2, “Tertiary amine substituted peptides useful as inhibitors of HCV replication” (Achillion Pharmaceuticals, Inc., priority 2007, dated 2013):

The molecules below were run on HCV replicon (assay: HCV replicon replication assay (NPT ELISA) in Huh-7 replicon-containing cells). Conditions: Hepatitis C virus, 72 h; inhibition of HCV replicon replication, Huh-7 HCV replicon-containing cells, three days.
Format: cell-based, Hepatitis C virus
Experimental: Compounds claimed herein are tested for the ability to inhibit viral replication of the Hepatitis C replicon in cultured cells in which the HCV replicon construct has been incorporated. The HCV replicon system was described by Bartenschlager, et. al (Science, 285, pp. 110-113 (1999)). The replicon system is predictive of in vivo anti-HCV activity; compounds that are active in humans uniformly evidence activity in the replicon assay.
In this assay HCV replicon containing cells are treated with different concentrations of the test compound to ascertain the ability of the test compound to suppress replication of the HCV replicon. As a positive control, HCV replicon-containing cells are treated with different concentrations of interferon alpha, a known inhibitor of HCV replication. The replicon assay system includes Neomycin Phosphotransferase (NPT) as a component of the replicon itself in order to detect the transcription of replicon gene products in the host cell. Cells in which the HCV replicon is actively replicating have high levels of NPT; the level of NPT is proportional to HCV replication. […] The NPT level of each sample is measured using a captured ELISA.
The HCV replicon contains, 5′-3′, the HCV-IRES, the neomycin phosphotransferase (neo) gene, the IRES of encephalomyocarditis virus, which directs translation of HCV sequences NS3 to NS5B, and the 3′-NTR. The sequence of the HCV replicon has been deposited in GenBank (Accession no. AJ242652).
The replicon is transfected into Huh-7 cells using standard methods such as electroporation.
HCV replicon-containing cells are rinsed with once PBS once; 2 mls of trypsin are then added. Cells are incubated at 37° C. in a 5% CO2 incubator for 3-5 minutes. 10 mls of complete medium is added to stop the reaction. Cells are blown gently, put into a 15 ml tube, and spun at 1200 rpm for four minutes. The trypsin/medium solution is removed and 5 mls of medium (500 ml DMEM (high glucose)) from BRL catalog #12430-054; 50 mls 10% FBS, 5% Geneticin G418 (50 mg/ml, BRL catalog #10131-035), 5 ml MEM non-essential amino acids (100×BRL #11140-050) and 5 ml pen-strep (BRL #15140-148) is added. The cells and media are mixed carefully
Cells are plated with screening medium (500 ml DMEM (BRL #21063-029), 50 ml FBS (BRL #10082-147) and 5 ml MEM non-essential amino acid (BRL #11140-050) at 6000-7500 cells/100 μl/well of 96 well plate (6-7.5×10^5 cells/10 ml/plate). Plates are placed into 37° C. 5% CO2 incubator overnight. 6D. Assay
The following morning, drugs (test compounds or interferon alpha) are diluted in 96 well U bottom plates with media or DMSO/media, depending on the final concentration chosen for screening. Generally for 6 concentrations of each test compounds ranging from 10 micromolar to 0.03 micromolar are applied. 100 μl of the test compound dilution is placed in wells of the 96 well plate containing the HCV replicon cells. Media without drug is added to some wells as a negative controls. DMSO is known to affect cell growth. Therefore, if drugs diluted in DMSO are used, all wells, including negative control (media only) and positive control (interferon alpha) wells, must contain the same concentration of DMSO, for single dose screening. The plates are incubated at 37° C. in a humidified 5% CO2 environment for three days.
On day four, the NTPII assay is quantitated. The medium is poured from the plates and the plates are washed once in 200 μl of PBS. The PBS is then decanted and the plates tapped in a paper towel to remove any remaining PBS. Cells are fixed in situ with 100 id/well of pre-cooled (−20° C.) methanol:acetone (1:1) and the plates are placed at −20° C. for 30 minutes.
The fixing solution is poured from the plates and the plates allowed to air-dry completely (approximately one hour). The appearance of the dried cell layer is recorded and the density of the cells in the toxic wells is scored with the naked eye. […]

Q: How did the EC50 turn out when `CCCC(NC(=O)C1C2CCCC2CN1C(=O)[C@H](C(C)C)N1CCCCC1)C(=O)C(=O)NC1CC1` (stereo partly drawn) [Compound 49, N-(1-(cyclopropylamino)-1,2-dioxohexan-3-yl)-2-((S)-3-mcthyl-2-(piperidin-1 - yl)bulanoyl)octahydrocyclopenta [c]pyrrole-1-carboxamide] was run?
A: < 100 µM

Q: `C=CC1CC1(NC(=O)[C@@H]1C[C@@H](Oc2cc(-c3ccccc3)nc3cc(OC)ccc23)CN1C(=O)[C@@H](N1CCCCC1)C(C)(C)C)C(=O)OCC` (stereo partly drawn) [Compound 50, ethyl 1-((2S,4R)-1-((S)-3,3-dimethyl-2-(piperidin-1-yl)butanoyl)-4-(7-methoxy-2-phenylquinolin-4-yloxy)pyrrolidine-2-carboxamido)-2-vinylcyclopropanecarboxylate] was tested. Which EC50 did it give?
A: < 100 µM

Q: Which EC50 does the source give for `C=CC1CC1(NC(=O)[C@@H]1C[C@@H](Oc2cc(-c3ccccc3)nc3cc(OC)ccc23)CN1C(=O)[C@H](c1ccccc1)N1CCCCC1)C(=O)OCC` (stereo partly drawn) [Compound 51, ethyl 1-((2S,4R)-4-(7-methoxy-2-phenylquinolin-4-yloxy)-1-((S)-2-phenyl-2-(piperidin-1-yl)acetyl)pyrrolidine-2-carboxamido)-2-vinylcyclopropanecarboxylate] here?
A: < 100 µM

Q: `C=CC1CC1(NC(=O)[C@@H]1C[C@@H](Oc2cc(-c3ccccc3)nc3cc(OC)ccc23)CN1C(=O)[C@H](C(C)C)N1CCCCC1)C(=O)OCC` (stereo partly drawn) [Compound 52, ethyl 1-((2S,4R)-4-(7-methoxy-2-phenylquinolin-4-yloxy)-1-((S)-3-methyl-2-(piperidin-1-yl)butanoyl)pyrrolidine-2-carboxamido)-2-vinylcyclopropanecarboxylate] was tested. Which EC50 did it give?
A: < 100 µM

Q: `C=CC1CC1(NC(=O)[C@@H]1C[C@@H](Oc2cc(-c3ccccc3)nc3cc(OC)ccc23)CN1C(=O)[C@H](C1CCCCC1)N1CCCCC1)C(=O)OCC` (stereo partly drawn) [Compound 53, ethyl 1-((2S,4R)-1-((S)-2-cyclohexyl-2-(piperidin-1-yl)acetyl)-4-(7-methoxy-2-phenylquinolin-4-yloxy)pyrrolidine-2-carboxamido)-2-vinylcyclopropanecarboxylate] was tested. Which EC50 did it give?
A: < 100 µM

Q: Which EC50 does the source give for `C=CC1CC1(NC(=O)[C@@H]1C[C@@H](Oc2cc(-c3ccccc3)nc3cc(OC)ccc23)CN1C(=O)[C@H](C)N1CCCCC1)C(=O)OCC` (stereo partly drawn) [Compound 54, ethyl 1-((2S,4R)-4-(7-methoxy-2-phenylquinolin-4-yloxy)-1-((S)-2-(piperidin-1-yl)propanoyl)pyrrolidine-2-carboxamido)-2-vinylcyclopropanecarboxylate] here?
A: < 100 µM

Q: How did the EC50 turn out when `C=CC1CC1(NC(=O)[C@@H]1C[C@@H](Oc2cc(-c3ccccc3)nc3cc(OC)ccc23)CN1C(=O)[C@@H](N1CCCCC1)C(C)(C)C)C(=O)O` (stereo partly drawn) [Compound 55, 1-((2S,4R)-1-((S)-3,3-dimethyl-2-(piperidin-1-yl)butanoyl)-4-(7-methoxy-2-phenylquinolin-4-yloxy)pyrrolidine-2-carboxamido)-2-vinylcyclopropanecarboxylic acid] was run?
A: < 100 µM

Q: How did the EC50 turn out when `C=CC1CC1(NC(=O)[C@@H]1C[C@@H](Oc2cc(-c3ccccc3)nc3cc(OC)ccc23)CN1C(=O)[C@H](c1ccccc1)N1CCCCC1)C(=O)O` (stereo partly drawn) [Compound 56, 1-((2S,4R)-4-(7-methoxy-2-phenylquinolin-4-yloxy)-1-((S)-2-phenyl-2-(piperidin-1-yl)acetyl)pyrrolidine-2-carboxamido)-2-vinylcyclopropanecarboxylic acid] was run?
A: > 100 µM

Q: For `C=CC1CC1(NC(=O)[C@@H]1C[C@@H](Oc2cc(-c3ccccc3)nc3cc(OC)ccc23)CN1C(=O)[C@H](C(C)C)N1CCCCC1)C(=O)O` (stereo partly drawn) [Compound 57, 1-((2S,4R)-4-(7-methoxy-2-phenylquinolin-4-yloxy)-1-((S)-3-methyl-2-(piperidin-1-yl)butanoyl)pyrrolidine-2-carboxamido)-2-vinylcyclopropanecarboxylic acid], which EC50 is on record?
A: < 100 µM

Q: How did the EC50 turn out when `C=CC1CC1(NC(=O)[C@@H]1C[C@@H](Oc2cc(-c3ccccc3)nc3cc(OC)ccc23)CN1C(=O)[C@H](C1CCCCC1)N1CCCCC1)C(=O)O` (stereo partly drawn) [Compound 58, 1-((2S,4R)-1-((S)-2-cyclohexyl-2-(piperidin-1-yl)acetyl)-4-(7-methoxy-2-phenylquinolin-4-yloxy)pyrrolidine-2-carboxamido)-2-vinylcyclopropanecarboxylic acid] was run?
A: < 100 µM

Q: With `C=CC1CC1(NC(=O)[C@@H]1C[C@@H](Oc2cc(-c3ccccc3)nc3cc(OC)ccc23)CN1C(=O)[C@H](C)N1CCCCC1)C(=O)O` (stereo partly drawn) [Compound 59, 1-((2S,4R)-4-(7-methoxy-2-phenylquinolin-4-yloxy)-1-((S)-2-(piperidin-1-yl)propanoyl)pyrrolidine-2-carboxamido)-2-vinylcyclopropanecarboxylic acid] as the molecule, how does the EC50 read?
A: > 100 µM

Q: `CCOC(=O)C12CC1/C=C\CCCCC[C@H](N1CCCCC1)C(=O)N1C[C@H](Oc3cc(-c4ccccc4)nc4cc(OC)ccc34)C[C@H]1C(=O)N2` (stereo partly drawn) [Compound 60, (2R,6S,16aS,Z)-ethyl 2-(7-methoxy-2-phenylquinolin-4-yloxy)-5,16-dioxo-6-(piperidin-1-yl)-1,2,3,5,6,7,8,9,10,11,13a,14,14a, 15,16,16a-hexadecahydrocyclopropa [e]pyrrolo[1,2-a] [1,4]diazacyclopentadecine-14a-carboxylatc] was tested. Which EC50 did it give?
A: < 100 µM

Q: With `COc1ccc2c(O[C@@H]3C[C@H]4C(=O)NC5(C(=O)O)CC5/C=C\CCCCC[C@H](N5CCCCC5)C(=O)N4C3)cc(-c3ccccc3)nc2c1` (stereo partly drawn) [Compound 61, (2R,6S,16aS,Z)-2-(7-methoxy-2-phenylquinolin-4-yloxy)-5,16-dioxo-6-(pipcridin-1-yl)-1,2,3,5,6,7,8,9,10,11,13a,14,14a, 15,16,16a-hexadecahydrocyclopropa [e]pyrrolo[1,2-a] [1,4]diazacyclopentadecine-14a-carboxylic acid] as the molecule, how does the EC50 read?
A: < 100 µM

Q: With `CCOC(=O)[C@]12C[C@@H]1/C=C\CCCCC[C@H](N1CCCCC1)C(=O)N1C[C@H](Oc3cc(-c4ccccc4)nc4cc(OC)ccc34)C[C@H]1C(=O)N2` [Compound 62, (2R,6S,13aR,14aS,16aS,Z)-ethyl 2-(7-methoxy-2-phenylquinolin-4-yloxy)-5,16-dioxo-6-(piperidin-1-yl)-1,2,3,5,6,7,8,9,10,11,13a,14,14a, 15,16,16a-hexadecahydrocyclopropa [e]pyrrolo[1,2-a] [1,4]diazacyclopentadecine-14a-carboxylate] as the molecule, how does the EC50 read?
A: < 100 µM

Q: How did the EC50 turn out when `CCOC(=O)[C@@]12C[C@H]1/C=C\CCCCC[C@H](N1CCCCC1)C(=O)N1C[C@H](Oc3cc(-c4ccccc4)nc4cc(OC)ccc34)C[C@H]1C(=O)N2` [Compound 63, (2R,6S,13aS,14aR,16aS,Z)-ethyl 2-(7-methoxy-2-phenylquinolin-4-yloxy)-5,16-dioxo-6-(piperidin-1-yl)-1,2,3,5,6,7,8,9,10,11,13a,14,14a, 15,16,16a-hexadecahydrocyclopropa [e]pyrrolo[1,2-a] [1,4]diazacyclopentadecine-14a-carboxylate] was run?
A: < 100 µM

Same assay, conditions: inhibition of HCV replicon replication, Huh-7 HCV replicon-containing cells, three days

Q: How did the EC50 turn out when `CCCC(NC(=O)C1C2CCCC2CN1C(=O)[C@@H](N1CCCCC1)C(C)(C)C)C(=O)C(=O)NC1CC1` (stereo partly drawn) [Compound 48, N-(1-(cyclopropylamino)-1,2-dioxohexan-3-yl)-2-((S)-3,3-dimethyl-2-(piperidin-1-yl)butanoyl)octahydrocyclopenta [c]pyrrole-1-carboxamide] was run?
A: < 100 µM
